Test results published in patent US6150385A, “1,3,4-thiadiazoles useful for the treatment of CMV infections” (Pharmacia & Upjohn Company, priority 1999, dated 2000).

biological target: T1, HCMV polymerase (Human cytomegalovirus, UniProt P08546); assay: HCMV polymerase assay (scintillation proximity assay); format: biochemical; conditions: percentage of inhibition at 25 μM concentration in CMV polymerase assay
T1 construct: made in house; host or cells: SF-9 insect cells infected with recombinant baculovirus
T1 sequence (P08546 whole entry): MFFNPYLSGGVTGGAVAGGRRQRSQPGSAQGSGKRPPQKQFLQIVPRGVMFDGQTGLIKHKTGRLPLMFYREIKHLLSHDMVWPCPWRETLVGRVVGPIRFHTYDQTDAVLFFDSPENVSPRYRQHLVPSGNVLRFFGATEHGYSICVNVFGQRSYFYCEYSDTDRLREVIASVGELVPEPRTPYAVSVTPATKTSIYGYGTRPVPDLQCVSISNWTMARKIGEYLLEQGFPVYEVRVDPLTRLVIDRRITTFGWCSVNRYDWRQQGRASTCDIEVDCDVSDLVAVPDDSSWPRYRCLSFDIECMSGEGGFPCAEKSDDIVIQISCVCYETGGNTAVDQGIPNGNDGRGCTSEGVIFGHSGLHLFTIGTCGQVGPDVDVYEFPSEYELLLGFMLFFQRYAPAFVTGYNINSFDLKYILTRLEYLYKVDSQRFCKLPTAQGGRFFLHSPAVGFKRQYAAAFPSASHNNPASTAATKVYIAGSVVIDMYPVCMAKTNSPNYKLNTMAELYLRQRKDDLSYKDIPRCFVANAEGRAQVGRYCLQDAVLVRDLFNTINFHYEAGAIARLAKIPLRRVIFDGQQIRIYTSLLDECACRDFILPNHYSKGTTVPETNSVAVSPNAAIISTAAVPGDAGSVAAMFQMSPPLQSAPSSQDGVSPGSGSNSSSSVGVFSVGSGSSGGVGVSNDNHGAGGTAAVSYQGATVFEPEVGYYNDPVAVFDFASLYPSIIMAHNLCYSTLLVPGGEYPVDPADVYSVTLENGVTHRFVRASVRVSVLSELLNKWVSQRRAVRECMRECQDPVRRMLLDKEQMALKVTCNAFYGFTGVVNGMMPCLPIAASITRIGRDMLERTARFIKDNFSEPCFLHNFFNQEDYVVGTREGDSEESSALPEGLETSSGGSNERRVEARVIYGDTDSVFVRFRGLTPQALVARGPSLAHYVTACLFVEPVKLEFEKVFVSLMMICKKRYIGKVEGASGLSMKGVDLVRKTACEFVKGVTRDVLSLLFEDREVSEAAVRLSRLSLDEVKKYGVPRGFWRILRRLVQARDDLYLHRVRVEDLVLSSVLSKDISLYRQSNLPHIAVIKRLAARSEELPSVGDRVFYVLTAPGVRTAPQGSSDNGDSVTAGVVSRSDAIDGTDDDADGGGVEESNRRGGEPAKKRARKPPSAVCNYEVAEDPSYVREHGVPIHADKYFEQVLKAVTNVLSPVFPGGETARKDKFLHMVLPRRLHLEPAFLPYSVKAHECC
How it was run: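 Values are percent inhibition at 25 μM, measured by scintillation proximity after capture of biotinylated poly(dA)-oligo(dT) (6 nM) extended with 90 nM 3H-dTTP. Recombinant SF-9-derived enzyme reacted 30 min at 25 or 37 °C in HEPES pH 7.5/KCl/MgCl2/BSA buffer, ±2 mM CHAPS, before EDTA termination.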

SMILES | inhibition at 25 µM [%] | % Inhib [%]
O=C(CCCCCl)Nc1nnc(NCc2cccc3ccccc23)s1 [compound 200, 5-chloro-N-{5-[(1-naphthylmethyl)amino]-1,3,4-thiadiazol-2-yl}pentanamide] | 45.3 | –
O=C(Nc1nnc(NC2CCCCCC2)s1)c1cccc([N+](=O)[O-])c1 [compound 201, N-[5-(cycloheptylamino)-1,3,4-thiadiazol-2-yl]-3-nitrobenzamide] | 45.3 | –
O=C(Nc1nnc(NCCCn2ccnc2)s1)c1ccc(Cl)c(Cl)c1 [compound 202, 3,4-dichloro-N-(5-{[3-(1H-imidazol-1-yl)propyl]amino}-1,3,4-thiadiazol-2-yl)benzamide] | 45 | –
O=C(Nc1nnc(NCCCN2CCCC2=O)s1)c1ccc(I)cc1 [compound 203, 4-iodo-N-(5-{[3-(2-oxo-1-pyrrolidinyl)propyl]amino}-1,3,4-thiadiazol-2-yl)benzamide] | 45 | –
O=C(Nc1nnc(NCCNc2ccccc2)s1)c1ccc(S(=O)(=O)F)cc1 [compound 204, 4-[({5-[(2-anilinoethyl)amino]-1,3,4-thiadiazol-2-yl}amino)carbonyl]benzenesulfonyl fluoride] | – | 45.0
O=C(Nc1nnc(NCCSc2ccccc2)s1)c1ccc(F)cc1F [compound 205, 2,4-difluoro-N-(5-{[2-(phenylsulfanyl)ethyl]amino}-1,3,4-thiadiazol-2-yl)benzamide] | 44.9 | –
CCOc1ccc2ccccc2c1C(=O)Nc1nnc(NCCSc2ccccc2)s1 [compound 206, 2-ethoxy-N-(5-{[2-(phenylsulfanyl)ethyl]amino}-1,3,4-thiadiazol-2-yl)-1-naphthamide] | 44.9 | –
CCOc1ccc2ccccc2c1C(=O)Nc1nnc(NCc2ccc(Cl)c(Cl)c2)s1 [compound 207, N-{5-[(3,4-dichlorobenzyl)amino]-1,3,4-thiadiazol-2-yl}-2-ethoxy-1-naphthamide] | 44.7 | –
O=C(/C=C/c1ccccc1Cl)Nc1nnc(NCCCN2CCCC2=O)s1 [compound 208, (E)-3-(2-chlorophenyl)-N-(5-{[3-(2-oxo-1-pyrrolidinyl)propyl]amino}-1,3,4-thiadiazol-2-yl)-2-propenamide] | 44.7 | –
CC1(C)C2CC[C@@H](CNc3nnc(NC(=O)c4ccc([N+](=O)[O-])o4)s3)C1C2 (stereo partly drawn) [compound 209, N-[5-({[(2R)-6,6-dimethylbicyclo[3.1.1]hept-2-yl]methyl}amino)-1,3,4-thiadiazol-2-yl]-5-nitro-2-furamide] | 44.7 | –
O=C(/C=C/c1ccccc1Cl)Nc1nnc(NCCc2ccccc2)s1 [compound 210, (E)-3-(2-chlorophenyl)-N-[5-(phenethylamino)-1,3,4-thiadiazol-2-yl]-2-propenamide] | 44.6 | –
CCSCCNc1nnc(NC(=O)/C=C/c2ccccc2)s1 [compound 211, (E)-N-(5-{[2-(ethylsulfanyl)ethyl]amino}-1,3,4-thiadiazol-2-yl)-3-phenyl-2-propenamide] | 44.3 | –
O=C(Nc1nnc(NCCCNC2CCCCC2)s1)c1ccc(I)cc1 [compound 212, N-(5-{[3-(cyclohexylamino)propyl]amino}-1,3,4-thiadiazol-2-yl)-4-iodobenzamide] | 44.2 | –
CCOc1ccc2ccccc2c1C(=O)Nc1nnc(NCc2ccco2)s1 [compound 213, 2-ethoxy-N-{5-[(2-furylmethyl)amino]-1,3,4-thiadiazol-2-yl}-1-naphthamide] | 44.2 | –
O=C(Nc1nnc(NCc2cccc3ccccc23)s1)c1cc2ccccc2s1 [compound 214, N-{5-[(1-naphthylmethyl)amino]-1,3,4-thiadiazol-2-yl}-1-benzothiophene-2-carboxamide] | 44.1 | –
O=C(/C=C/c1ccccc1)Nc1nnc(NCCc2c[nH]cn2)s1 [compound 215, (E)-N-(5-{[2-(1H-imidazol-4-yl)ethyl]amino}-1,3,4-thiadiazol-2-yl)-3-phenyl-2-propenamide] | 44.1 | –
CCCCCCCCCCCNc1nnc(NC(=O)/C=C/c2ccccc2Cl)s1 [compound 216, (E)-3-(2-chlorophenyl)-N-[5-(undecylamino)-1,3,4-thiadiazol-2-yl]-2-propenamide] | 43.9 | –
O=C(Nc1nnc(NCCC(c2ccccc2)c2ccccc2)s1)c1ccc(S(=O)(=O)F)cc1 [compound 217, 4-[({5-[(3,3-diphenylpropyl)amino]-1,3,4-thiadiazol-2-yl}amino)carbonyl]benzenesulfonyl fluoride] | – | 43.9
O=C(Nc1nnc(NC2CCN(Cc3ccccc3)CC2)s1)c1cc2ccccc2s1 [compound 218, N-{5-[(1-benzyl-4-piperidinyl)amino]-1,3,4-thiadiazol-2-yl}-1-benzothiophene-2-carboxamide] | 43.6 | –
CC(C)c1cc(C(C)C)c(C(=O)Nc2nnc(NCCc3c[nH]c4ccccc34)s2)c(C(C)C)c1 [compound 219, N-(5-{[2-(1H-indol-3-yl)ethyl]amino}-1,3,4-thiadiazol-2-yl)-2,4,6-triisopropylbenzamide] | 43.6 | –
O=C(/C=C/c1ccccc1)Nc1nnc(NCCN2CCOCC2)s1 [compound 220, (E)-N-{5-[(2-morpholinoethyl)amino]-1,3,4-thiadiazol-2-yl}-3-phenyl-2-propenamide] | 43.6 | –
O=C(/C=C/c1ccccc1Cl)Nc1nnc(NCCCn2ccnc2)s1 [compound 221, (E)-3-(2-chlorophenyl)-N-(5-{[3-(1H-imidazol-1-yl)propyl]amino}-1,3,4-thiadiazol-2-yl)-2-propenamide] | 43.5 | –
O=C(Nc1nnc(NCc2ccncc2)s1)c1cc2ccccc2s1 [compound 222, N-{5-[(4-pyridinylmethyl)amino]-1,3,4-thiadiazol-2-yl}-1-benzothiophene-2-carboxamide] | 43.2 | –
NS(=O)(=O)c1ccc(CNc2nnc(NC(=O)c3cc4ccccc4s3)s2)cc1 [compound 223, N-(5-{[4-(aminosulfonyl)benzyl]amino}-1,3,4-thiadiazol-2-yl)-1-benzothiophene-2-carboxamide] | 43.1 | –
COc1ccccc1C(=O)Nc1nnc(NCC(c2ccccc2)c2ccccc2)s1 [compound 224, N-{5-[(2,2-diphenylethyl)amino]-1,3,4-thiadiazol-2-yl}-2-methoxybenzamide] | 43 | –
O=C(Nc1nnc(NCCCCc2ccccc2)s1)c1c(Cl)cccc1Cl [compound 225, 2,6-dichloro-N-{5-[(4-phenylbutyl)amino]-1,3,4-thiadiazol-2-yl}benzamide] | 42.9 | –
O=C(Nc1nnc(NCCC(c2ccccc2)c2ccccc2)s1)c1cccc([N+](=O)[O-])c1 [compound 226, N-{5-[(3,3-diphenylpropyl)amino]-1,3,4-thiadiazol-2-yl}-3-nitrobenzamide] | 42.9 | –
CCOc1ccc2ccccc2c1C(=O)Nc1nnc(NC2CC2)s1 [compound 227, N-[5-(cyclopropylamino)-1,3,4-thiadiazol-2-yl]-2-ethoxy-1-naphthamide] | 42.8 | –
O=C(Nc1nnc(NCCCN2CCCC2=O)s1)c1cc(F)cc(F)c1 [compound 228, 3,5-difluoro-N-(5-{[3-(2-oxo-1-pyrrolidinyl)propyl]amino}-1,3,4-thiadiazol-2-yl)benzamide] | 42.8 | –
